{"source": "patent EP0819136B1", "about": "“MDP DERIVATIVES AND CONJUGATES HAVING HAEMATOPOIETIC FUNCTION STIMULATING ACTIVITY, AND COMPOSITIONS CONTAINING SAME” (VACSYN S.A., priority 1995, dated 1996)", "test_system": "leucocytes et de neutrophiles circulants", "assay": "Leucocyte, neutrophil and myelocyte counts after oral Muradimétide with non-myelotoxic or myelotoxic i.v. AZT (Example 8, figures 1-3)", "format": "in vivo, souris Swiss femelles", "conditions": "Muradimétide 25 mg/kg p.o. 4 h before AZT 5 or 40 mg/kg i.v., days 0-3; time after start of treatment", "procedure": "La figure 1 montre l'effet d'un traitement per os des souris avec du Muradimétide en association avec des doses d'AZT non myélotoxiques (5 mg par kg) (Fig 1A) ou myélotoxiques (40mg par kg) (Fig 1B) sur le changement des leucocytes circulants.\nLa figure 2 représente le même type de courbe sur la numération des neutrophiles; la figure 2A représente une expérience réalisée avec une dose non myélotoxique d'AZT (5 mg par kg) et la figure 2B avec une dose myélotoxique d'AZT (40 mg par kg).\nLa figure 3 représente le même type de courbe sur la numération des myélocytes. La figure 3A se rapporte à une dose non myélotoxique d'AZT (5mg/kg) et la figure 3B à une dose myélotoxique (40 mg/kg).\nCet effet est indiqué sur les figures 1 et 2, les figures 1A et 2A représentant une dose non myélotoxique d'AZT et les figures 1B et 2B représentant une dose myélotoxique d'AZT.\nDans cette expérience, des souris Swiss femelles ont été injectées par voie intra-veineuse avec de l'AZT à la dose de 5 ou de 40 mg par kg aux jours 0, 1, 2 et 3. Sur chacun des 4 jours et 4 heures avant l'administration d'AZT, des groupes de souris constitués de 5 individus ont reçu per os soit du tampon soit du Muradimétide à la dose de 25 mg par kg.\nLes comptages cellulaires sont effectués aux jours 0, 1, 2, 3, 4 et 7. […]"}
{"smiles": "COC(=O)CC[C@@H](NC(=O)[C@H](C)NC(=O)[C@@H](C)O[C@H]1[C@H](O)[C@@H](CO)OC(O)[C@@H]1NC(C)=O)C(=O)OC", "note": "(stereo partly drawn) [Muradimétide, Nac-Mur-L-Ala-D-Glu-[OCH3]-OCH3]", "values": [{"measurement": "temps de l'effet maximum (leucocytes, neutrophiles, myélocytes)", "value": 4, "unit": "jours"}]}
